This note sets out measurements from publication PMC5532363, “Synergistic blending of high-valued heterocycles inhibits growth of Plasmodium falciparum in culture and P. berghei infection in mouse model” (Scientific Reports, 2017).

Each structure is given as a SMILES string. Read-outs that look alike come from different tables or passages of the source.

For one data set, the system named is P. berghei NK65. As to the kind of experiment: Modified Peter's 4-day suppressive test in P. berghei NK65 infected Swiss albino mice. Type of data set: in vivo, Plasmodium berghei. Particulars: 6h/6u 50 mg/kg, artemisinin 5 mg/kg, s.c. for four consecutive days, n = 6/group. As for the experimental part:
The antimalarial effect of two active analogues, 6h and 6u (administered at 50 mg/kg of body weight), was determined in mice infected with P. berghei NK65, a strain, which results in high levels of blood-stage parasitemia. […] However, the 6u analogue had better antimalarial efficacy than the 6h analogue (Fig. 6A). As such, we then evaluated the efficacy of 6u (50 mg/kg) in combination with artemisinin (5 mg/kg of body weight) at reduced dosage in the murine malaria model. […] The median survival times of animals treated with Pht 6u alone, as well in combination with ART were 23 and 27.5 days, respectively (P<0.001).
Figure 6 Antimalarial effect of Pht analogs (6h and 6u) alone and in combination with Artemisinin (6u and ART) on parasitemia and survival in mice infected with P. berghei NK65. Mice were injected with 1 × 10^7 P. berghei infected RBCs. After 48 hours mice were treated with control (PBS: untreated), 6h and 6u (alone), and 6u in combination with artemisinin (all injected subcutaneously) for four consecutive days. The % of parasitemia was determined for the groups on days 5, 8 and 15 by randomly selecting 10 different optical fields on blood smears. (A) Administration of 6h and 6u (alone), and 6 u in combination with ART. Data are the mean ± SEM from six animals per treatment group. (B) Survival in the treatment groups (n = 6/group). (C) Photomicrograph of blood smears of untreated versus treatment groups at day 15 post infection (100x magnification). ART, Artemisinin; *P < 0.05. TEXT PRINTED IN THE PICTURE: (B) Phthalimide 6h: MST- 19.5 | (B) Phthalimide 6u: MST- 23 | (B) Artemisinin: MST- 21.5 | (B) Phthalimide 6u+Artemisinin: MST- 27.5
All animal experiments were performed in female Swiss albino mice (4 to 5 weeks old, weighing 25 to 30 g). The animals were housed under standard controlled conditions at 25 °C with a 12-h light-dark cycle and access to sterilized food pellets and water. All experiments were carried out in accordance with the standard procedures approved by the Animal Ethics Committee of the University of Delhi South Campus, under the Control and Supervision of Experiments on Animals (CPCSEA), Ministry of Social Justice and Empowerment, Government of India. […] The antimalarial activity was carried out in accordance with a slightly modified version of the Peter’s 4-day suppressive test[43]. The animals were assigned to each group (n = 6). Subsequently, after 48 hour of postinfection, the parasitemia level reached 1 to 2%, and all the groups of mice were treated by subcutaneous (s.c.) injection with compounds 6h and 6u alone as well in combination with artemisinin solubilized in DMSO. One group was kept as a control and treated with physiological saline. The efficacy of the treatment was monitored by measuring the parasitemia and survival on days 5, 8 and 15 posttreatments by obtaining thin smears of blood withdrawn from the tail vein of infected mice and staining with 10% Giemsa. The level of parasitemia was determined by counting infected and noninfected erythrocytes from 10 to 15 randomly selected optical fields at 100x magnification and expressed as the number of infected erythrocytes per 100 erythrocytes. The survival of mice was recorded and observed for external symptoms, such as change in body weight, ruffled fur, lethargy and paralysis, until 30 or 40 days posttreatment. The reduction in the level of parasitemia was taken as the index for the curative activities of the drugs. The percentage of parasitemia was calculated manually with the Cell Counting Aid software[44] using the formula (total no. of parasitized RBCs)/(total no. of RBCs) × 100.
For in-vivo experiments, statistical differences between two groups were determined by Student’s t test and between multiple groups using one-way analysis of variance (ANOVA), with P values of <0.05, by GraphPad Prism (version 5.01; GraphPad Software, Inc., CA). […]

In the next data set the test system is P. falciparum W2. Briefly: Fixed-ratio isobologram drug interaction assay with CQ/DHA, W2. The format is cell-based, Plasmodium falciparum. As to conditions: PfW2. As for the experimental part:
(§1) A modified fixed-ratio isobologram method was used to assess interaction between CQ/DHA and Pht analogues. Briefly, a total of 5 solutions containing fixed-ratio mixtures of Pht derivatives with either CQ or DHA were prepared in the following ratios: 1:1, 2:1, 3:2, 2:3, and 1:4. The starting concentrations for ten 2 fold-serial dilutions across the microtiter plate were assigned so that the IC50 of each drug would be in the 5th serial dilution of the plate. Each drug was tested alone and at fixed ratios of its IC50. The assessment of drug interaction was based on the calculation of the fractional inhibitory concentration (FIC) of two drugs in the […]. FIC was calculated for each association by dividing the IC50 of the drug in the combination by the IC50 of the drug alone.

Data set [1] concerns synchronized Pf3D7 strain cultures (rings, trophozoites). As to the kind of experiment: Stage-specificity and parasitemia titres on synchronized Pf3D7 cultures (Giemsa smears). The format is cell-based, Plasmodium falciparum. As to conditions: for effect on ring stage parasitemia: 6 hours post exposure of ring stages; for effect on ring stage parasitemia / effect on mature blood stage parasite titres (parasitemia): Fig. 5; for effect on mature blood stage parasite titres (parasitemia): 16 hours after incubation with trophozoite stage; for effect on progression from trophozoites to schizonts / schizont morphology: concentration = individual IC50, up to 16 hours exposure; for effect on ring-stage growth and morphology: newly synchronized rings, concentration = individual IC50, monitored at 6 and 12 hours. As for the experimental part: Next, we sought to determine stage-specificity of the antiplasmodial activity of the four active analogues (6a, 6h, 6m and 6u) on synchronized Pf3D7 strain cultures at 2% hematocrit and 1% parasitemia, with concentrations corresponding to individual drug IC50. To determine the effect of the compounds on both early and late ring stage parasites, the treatment was conducted on newly synchronized rings for 12 hours, and drug effect on parasite growth and morphology was monitored at 6 and 12 hours after exposure. Similarly, early trophozoites were exposed to each compound and incubated for 16 hours, and monitored at 6 and 16 hours post-exposure. The effect of the compounds on parasite morphology and development was compared in exposed and unexposed drug wells (Figs 3 and 4).
Figure 5 Effect of Pht analogues on parasite growth titres (Note: Graphical description of the inhibitory effect of select analogues on parasite growth titres 6 hours after incubation with ring-stages and 16 hours after drug incubation with trophozoite stage. Parasitemia percentage was derived by counting the number of infected erythrocytes from a total of 2,000 erythrocytes on Giemsa stained thin smears from each experiment. Bar diagrams represent the average of three different experiments).

Data set [2] concerns P. falciparum 3D7 (Pf3D7), CQ sensitive. Briefly: SYBR Green I growth inhibition assay, asynchronous P. falciparum 3D7 culture. The format is cell-based, Plasmodium falciparum. As to conditions: SYBR Green, mean of three experiments, NDR / No IC50 = no dose response. The text has this:
(§2) Antimalarial activity of all the listed Pht analogues was initially assessed on asynchronous cultures of P. falciparum 3D7 (Pf3D7) clone using the SYBR Green assay. […] The mean IC50 values are based on three separate experiments (Table 1).
(§3) The laboratory-adapted P. falciparum strains 3D7 (Africa; CQ sensitive) and W2 (Africa; CQ resistant), were acquired from Malaria Research and Reference Reagent Resource Center (MR4) (Manassas, VA, USA) and maintained with type O +ve erythrocytes suspended in continuous complete culture medium as described. Complete culture media consisted of 10.43 g/litre of RPMI 1640-HEPES supplemented with 10% (vol/vol) human AB serum, 92.6 mg/litre L-glutamine, 50 mg/liter hypoxanthine, 2 g/litre sodium bicarbonate (Sigma-Aldrich, St. Louis, MO). Incubation of cultures was at 37 °C and maintained in a low oxygen atmosphere (5% O2, 5% CO2, 90% N). The levels of parasitemia in the cultures were maintained at between 2 and 10%, with 5% hematocrit. Media was changed after every 24 hours and parasitemia monitored every 48 hours. Synchronous cultures were prepared by sorbitol lysis. Stock solutions of the Pht, Pht analogues, and DHA were prepared in absolute dimethyl sulfoxide (DMSO) while CQ was prepared in distilled water. The prepared drug stock solutions were used immediately or stored at −80 °C for not longer than one month before use. Stock solutions were further diluted in serum free RPMI 1640 media (stock solution solvent final conc. 0.05%) before performing a 2-fold serial dilution to achieve dose ranges of 0.2 µM to 100 µM (Pht and derivatives), 7.8 to 2,000 nM (CQ) and 0.17 to 87.5 nM (DHA). 25 μL of the drug diluents were aliquoted into 96 well plates and used immediately. Alternatively, the stock solutions were diluted in distilled water, 2-fold serial dilution performed on a 96 well plate and allowed to air dry in a laminar flow hood after which dried plates were stored at 4 °C until use. SYBR Green I assay technique with additional modification was used for drug susceptibility testing of the parasites. Parasite cultures of >1% parasitemia were diluted to 1% parasitemia and 2% hematocrit and 200 μL were transferred onto drug pre-dosed plates and incubated at 37 °C for 90 hours, [40]. Drug exposure was terminated by freezing the drug plates at −80 °C for 24 hours after which lysis buffer containing (per liter) 100 mM Tris-HCl, 10 mM EDTA, 0.016% Saponin, 1.6% triton X-100 and 20X SYBR Green I dye was added and the sample incubated for 2 hours in the dark. Relative fluorescence units (RFU) were read using the Perkin Elmer Wallac 1420 fluorescence plate reader, with excitation and emission wavelengths of 485 nm and 535 nm respectively. The readouts values were aligned with corresponding drug doses and analysis performed by Graph-pad Prism software. The drug concentrations (x value) were transformed using X = Log[X] and plotted against the counts (y values) and the data analysed by non-linear regression (sigmoid dose-response/variable slope equation) to yield the IC50.

A further data set has as its system CQ resistant PfW2 strain. As to the kind of experiment: SYBR Green I growth inhibition assay, P. falciparum W2 culture. Type of data set: cell-based. Particulars: Plasmodium falciparum.
Description: as §2
as §3, with “Drug exposure was terminated by freezing the drug plates at −80 °C for 24 hours after which lysis buffer containing (per liter) 100 mM Tris-HCl, 10 mM EDTA, 0.016% Saponin, 1.6% triton X-100 and 20X SYBR Green I dye was added and the sample incubated for 2 hours in the dark.” left out

The nature of data set [3]: MTT cytotoxicity assay in U937 cells. Type of data set: cell-based. Particulars: human; for selectivity ratio at 24 h: U937 cells (CC50) versus 3D7 parasites (IC50), CC50 U937 / IC50 3D7, SI > 2 = low cytotoxicity, read-out: selectivity index (SI); for CC50 at 24 h: U937 cells, MTT. As for the experimental part: As a final step in the investigational pipeline, we determined the cytotoxic effect of the four active analogues (6a, 6h, 6m and 6u) in U937 cell lines by measuring 50% cytotoxic concentrations (CC50) and calculating selectivity indices (SIs) as a measure of toxicity in human cells.
Cytotoxicity of the 4 select Pht compounds on human cells was evaluated by assessing cell viability of the U937, a human acute monocyte leukemia cell lines by use of the MTT assay. U937 was acquired from American Type Culture Collection (ATCC, Rockville, MD) and maintained in RPMI 1640 medium supplemented with 10% fetal bovine serum, and Penicillin-streptomycin (1% v/v) (Gibco, UK) at 37 °C. Robust U937 cells at a concentration of 80,000 cells/ml were plated into 96-well plates and incubated for 24 hours. Six concentrations of the Pht compounds were added in a two-fold dilution from starting concentration of 50 to 1.56 µM in triplicate and incubated with the cells for 24 hours. This was followed by addition of 10 µL MTT solution (5 mg/mL) into each well, incubated for 4 hour at 37 °C followed by addition of 50 µL DMSO to dissolve the formazan precipitate according to manufacturer’s protocol. Aliquots were drawn from each well and color intensity was measured spectrophotometrically in an ELISA plate reader (Biotek, ELx800) at 540 nm. The cell viability ratio was calculated by the following formula: % cytotoxicity = [Mean OD of test cells] − [Mean OD of control cells]/[Mean OD of control cells] × 100. Viability counts were then plotted against corresponding drug concentrations to yield cytotoxicity (CC50) through non-linear regression (sigmoid dose-response/variable slope equation). Drug CC50 values were then used to define selectivity indices, which is a measure of drug safety in human relative to parasitic cells and was calculated as the ratio of the CC50 value determined on the U937 cells (cytotoxicity) and the IC50 value determined on parasite growth inhibition 3D7 (anti-plasmodial activity). In this study, we set SI > 2 as cut-off as an indicative of low drug cytotoxicity.

The test system of another data set is P. falciparum 3D7. Briefly: Fixed-ratio isobologram drug interaction assay with CQ/DHA, 3D7. The format is cell-based, Plasmodium falciparum. Particulars: Pf3D7. As for the experimental part:
as §1

Where [4] appears, read: Plasmodium falciparum, 3D7, Pf3D7, asynchronous culture, read-out: IC50 (SE) µg/mL.

`C[C@@H]1CC[C@H]2[C@@H](C)C(=O)O[C@@H]3O[C@@]4(C)CC[C@@H]1[C@]32OO4` [Artemisinin, reference compound]: in the data set on P. berghei NK65, the “median survival time (MST)” value came out at 21.5 days.
Turning to `CC(C)C[C@H](c1nc2ccccc2n1Cc1cn(-c2ccccc2)nn1)N1C(=O)c2ccccc2C1=O` [Compound 6a], the “interaction when combined with CQ and DHA” value in the data set on P. falciparum W2 is “synergistic activity”. Further, in data set [1], the “effect on ring stage parasitemia” value is given as “reduction in ring stage parasitemia”; the “effect on mature blood stage parasite titres (parasitemia)” value is on record as “negligible”; the “effect on ring-stage growth and morphology” value is “active against ring-stage forms”. In addition, the “effect on progression from trophozoites to schizonts / schizont morphology” value in data set [1] (early trophozoites) was “did not interfere with development of parasite progression from trophozoites to schizonts”. Further, the IC50 in data set [2] (setting [4]) stood at 0.7 µg/mL. In the data set on CQ resistant PfW2 strain, the IC50 was found to be 700 nM. In addition, in data set [3], the selectivity ratio at 24 h came out at 1.01 ± 1.5 and the CC50 at 24 h was determined as 910 ± 320 nM. The “interaction when combined with CQ and DHA” value in the data set with P. falciparum 3D7 is recorded as “synergistic activity”.
With `CC(C)[C@H](c1nc2ccccc2n1Cc1cn(-c2ccc(F)cc2)nn1)N1C(=O)c2ccccc2C1=O` [Compound 6m], in data set [1], the “effect on ring stage parasitemia” value is on record as “did not affect parasite growth”; the “effect on mature blood stage parasite titres (parasitemia)” value is “reduction in parasitemia”; the “effect on ring-stage growth and morphology” value was “did not arrest ring-stage maturation”. Besides, the effect on trophozoites result in data set [1] (early trophozoites, concentration = individual IC50, 6 hours after exposure) is on record as “trophozoite growth did not appear to be affected”. Moreover, the “effect on progression from trophozoites to schizonts / schizont morphology” value in data set [1] (early trophozoites) was “schizonts appeared less granular and lacked distinguishable merozoites”. The IC50 in data set [2] (Pf3D7, asynchronous culture, read-out: IC50 (SE) µM) turned out to be 3.5 µM. In addition, the IC50 in data set [2] (Plasmodium falciparum, 3D7, Pf3D7, asynchronous culture, read-out: IC50 (SE) µM) is under 5.14 µM. Further, the IC50 in data set [2] (setting [4]) turned out to be 1.8 µg/mL. Also, in the data set with CQ resistant PfW2 strain, the IC50 was 3800 nM. Moreover, in data set [3], the selectivity ratio at 24 h turned out to be 1.11 ± 1.5 and half-maximal cytotoxicity (CC50 at 24 h) was put at 780 ± 320 nM.
